molecular target: T1, GPR6 receptor expressed in CHO-K1 cells (Homo sapiens, UniProt P46095); assay: In vitro inhibition of cAMP (EC50), cell-based HTRF cAMP assay; conditions: inhibition of constitutive cAMP activity of GPR6 in CHO-K1 cells
T1 construct: expressed in transfected cells
Summary of the method: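 Tetracycline-inducible CHO-K1 line, GPR6 expression induced 20 h with 2 μg/mL doxycycline. Compounds incubated 45 min at 37 °C in Ringer's buffer (pH 7.4) with 0.5% fatty acid free BSA and 300 μM IBMX. Constitutive cAMP read by Lance HTRF; EC50 from four-parameter logistic fit.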

T1 sequence (P46095 whole entry): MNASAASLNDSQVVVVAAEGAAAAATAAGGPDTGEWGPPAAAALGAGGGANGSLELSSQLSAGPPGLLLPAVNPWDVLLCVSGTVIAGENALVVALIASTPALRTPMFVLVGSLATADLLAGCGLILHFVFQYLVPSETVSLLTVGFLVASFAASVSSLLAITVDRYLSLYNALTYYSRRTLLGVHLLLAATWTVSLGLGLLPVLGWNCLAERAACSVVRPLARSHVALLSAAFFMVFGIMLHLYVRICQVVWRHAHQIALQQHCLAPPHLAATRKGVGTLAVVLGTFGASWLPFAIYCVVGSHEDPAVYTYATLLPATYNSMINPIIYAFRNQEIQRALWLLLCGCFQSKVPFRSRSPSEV

Row | pEC50, in vitro inhibition of cAMP | Structure (SMILES)
1 | 6.8 | Cc1ccc(C(=O)Nc2cc(C#N)ccc2N2CCC(Oc3ccc(F)cc3F)CC2)c(=O)n1C [Example 79, N-(5-cyano-2-(4-(2,4-difluorophenoxy)piperidin-1-yl)phenyl)-1,6-dimethyl-2-oxo-1,2-dihydropyridine-3-carboxamide]
2 | 6.3 | COc1nc(C)cc(C)c1C(=O)Nc1cc(C#N)ccc1N1CCC(Oc2ccc(F)cc2F)CC1 [Example 80, N-(5-cyano-2-(4-(2,4-difluorophenoxy)piperidin-1-yl)phenyl)-2-methoxy-4,6-dimethylnicotinamide]
3 | 6.9 | COc1ccc(C(=O)C2CCN(c3ccc(C#N)cc3NC(=O)c3cccn(C)c3=O)CC2)c(F)c1 [Example 81, N-(5-cyano-2-(4-(2-fluoro-4-methoxybenzoyl)piperidin-1-yl)phenyl)-1-methyl-2-oxo-1,2-dihydropyridine-3-carboxamide]
4 | 7.0 | Cn1cccc(C(=O)Nc2cc(C#N)ccc2N2CCC(C(=O)c3cc(F)ccc3F)CC2)c1=O [Example 82, N-(5-cyano-2-(4-(2,5-difluorobenzoyl)piperidin-1-yl)phenyl)-1-methyl-2-oxo-1,2-dihydropyridine-3-carboxamide]
5 | 6.9 | Cn1cccc(C(=O)Nc2cc(C#N)ccc2N2CCC(C(=O)c3cc(Cl)ccc3F)CC2)c1=O [Example 83]
6 | 6.6 | Cn1cccc(C(=O)Nc2cc(C#N)ccc2N2CCC([C@H](F)c3ccc(F)cc3F)CC2)c1=O [Example 84, (S)—N-(5-cyano-2-(4-((2,4-difluorophenyl)fluoromethyl)piperidin-1-yl)phenyl)-1-methyl-2-oxo-1,2-dihydropyridine-3-carboxamide]
7 | 7.2 | Cn1cccc(C(=O)Nc2cc(C#N)ccc2N2CCC([C@@H](F)c3ccc(F)cc3F)CC2)c1=O [Example 85, (R)—N-(5-cyano-2-(4-((2,4-difluorophenyl)fluoromethyl)piperidin-1-yl)phenyl)-1-methyl-2-oxo-1,2-dihydropyridine-3-carboxamide]
8 | 6.8 | Cn1cccc(C(=O)Nc2cc(C#N)ccc2N2CCC(C(F)(F)c3ccc(F)cc3F)CC2)c1=O [Example 86, N-(5-cyano-2-(4-((2,4-difluorophenyl)difluoromethyl)piperidin-1-yl)phenyl)-1-methyl-2-oxo-1,2-dihydropyridine-3-carboxamide]
9 | 7.2 | Cn1cccc(C(=O)Nc2cc(C#N)ccc2N2CCC(C(F)c3cc(F)ccc3F)CC2)c1=O (centres unmarked) [Example 87]
10 | 6.4 | Cn1cccc(C(=O)Nc2cc(C#N)ccc2N2CCC(C(F)(F)c3cc(F)ccc3F)CC2)c1=O [Example 88, N-(5-cyano-2-(4-((2,5-difluorophenyl)difluoromethyl)piperidin-1-yl)phenyl)-1-methyl-2-oxo-1,2-dihydropyridine-3-carboxamide]
11 | 6.3 | Cn1cccc(C(=O)Nc2cc(C#N)ccc2N2CCC(C(F)(F)c3cc(Cl)ccc3F)CC2)c1=O [Example 89, N-(2-(4-((5-chloro-2-fluorophenyl)difluoromethyl)piperidin-1-yl)-5-cyanophenyl)-1-methyl-2-oxo-1,2-dihydropyridine-3-carboxamide]
12 | 7.2 | COc1ccc(CC2CCN(c3ccc(C#N)cc3NC(=O)c3cccn(C)c3=O)CC2)c(F)c1 [Example 90, N-(5-cyano-2-(4-(2-fluoro-4-methoxybenzyl)piperidin-1-yl)phenyl)-1-methyl-2-oxo-1,2-dihydropyridine-3-carboxamide]
13 | 7.1 | COc1ncccc1C(=O)Nc1cc(C#N)ccc1N1CCN(Cc2ccc(F)cc2)CC1 [Example 91, N-(5-cyano-2-(4-(4-fluorobenzyl)piperazin-1-yl)phenyl)-2-methoxynicotinamide]
14 | 7.3 | COc1ccncc1C(=O)Nc1ccc(C#N)cc1N1CCC(Oc2ccc(F)cc2F)CC1 [Example 92, N-(4-cyano-2-(4-(2,4-difluorophenoxy)piperidin-1-yl)phenyl)-4-methoxynicotinamide]
15 | 6.3 | COc1ncccc1C(=O)Nc1cc(C#N)ccc1N1CCN(C(=O)c2ccc(F)cc2F)CC1 [Example 93, N-(5-cyano-2-(4-(2,4-difluorobenzoyl)piperazin-1-yl)phenyl)-2-methoxynicotinamide]
16 | <5.7 | COc1nccnc1C(=O)Nc1cc(C#N)ccc1N1CCC(Oc2ccc(F)cc2F)CC1 [Example 94, N-(5-cyano-2-(4-(2,4-difluorophenoxy)piperidin-1-yl)phenyl)-3-methoxypyrazine-2-carboxamide]
17 | 6.2 | COc1ncccc1C(=O)Nc1cc(S(C)(=O)=O)ccc1N1CCN(C(=O)c2ccc(F)cc2C)CC1 [Example 95, N-(2-(4-(4-fluoro-2-methylbenzoyl)piperazin-1-yl)-5-(methylsulfonyl)phenyl)-2-methoxynicotinamide]
18 | 6.5 | COc1ncccc1C(=O)Nc1cc(C#N)ccc1N1CCC(C(OC)c2ccc(F)cc2)CC1 (centres unmarked) [Example 96, N-(5-cyano-2-(4-((4-fluorophenyl)(methoxy)methyl)piperidin-1-yl)phenyl)-2-methoxynicotinamide]

Row | pEC50, in vitro inhibition of cAMP | Structure (SMILES)
19 | 6.4 | COc1nn(C)cc1C(=O)Nc1cc(C#N)ccc1N1CCC(S(=O)(=O)c2cccc(F)c2)CC1 [Example 97, N-(5-cyano-2-(4-((3-fluorphenyl)sulfonyl)piperidin-1-yl)phenyl)-3-methoxy-1-methyl-1H-pyrazole-4-carboxamide]
20 | 6.4 | COc1cccc(S(=O)(=O)C2CCN(c3ccc(C#N)cc3NC(=O)c3cn(C)nc3OC)CC2)c1 [Example 98, N-(5-cyano-2-(4-((3-methoxyphenyl)sulfonyl)piperidin-1-yl)phenyl)-3-methoxy-1-methyl-1H-pyrazole-4-carboxamide]
21 | 6.1 | COc1nn(C)cc1C(=O)Nc1cnc(C)cc1N1CCC(S(=O)(=O)c2ccc(F)cc2F)CC1 [Example 99, N-(4-(4-((2,4-difluorophenyl)sulfonyl)piperidin-1-yl)-6-methylpyridin-3-yl)-3-methoxy-1-methyl-1H-pyrazole-4-carboxamide]
22 | 6.8 | COc1ncc(F)cc1C(=O)Nc1ccc(C)nc1N1CCN(Cc2ccc(F)cc2)CC1 [Example 100, 5-fluoro-N-(2-(4-(4-fluorobenzyl)piperazin-1-yl)-6-methylpyridin-3-yl)-2-methoxynicotinamide]
23 | 5.9 | Cc1ccc(NC(=O)c2cc(F)cnc2O)c(N2CCN(Cc3ccc(F)cc3)CC2)n1 [Example 101, 5-fluoro-N-(2-(4-(4-fluorobenzyl)piperazin-1-yl)-6-methylpyridin-3-yl)-2-hydroxynicotinamide]
24 | 6.1 | COc1nn(C)cc1C(=O)Nc1cc(C)cnc1N1CCN(Cc2ccc(C#N)c(F)c2)CC1 [Example 102, N-(2-(4-(4-cyano-3-fluorobenzyl)piperazin-1-yl)-5-methylpyridin-3-yl)-3-methoxy-1-methyl-1H-pyrazole-4-carboxamide]
25 | 6.5 | COc1c(C(=O)Nc2ccc(C)nc2N2CCN(Cc3ccc(F)cc3)CC2)cnn1C [Example 103, N-(2-(4-(4-fluorobenzyl)piperazin-1-yl)-6-methylpyridin-3-yl)-5-methoxy-1-methyl-1H-pyrazole-4-carboxamide]
26 | <5.7 | Cc1ccc(NC(=O)c2cnn(C)c2O)c(N2CCN(Cc3ccc(F)cc3)CC2)n1 [Example 104]
27 | 7.0 | Cc1nc(C(=O)Nc2cc(C#N)ccc2N2CCC(Oc3ccc(F)cc3F)CC2)cs1 [Example 105]
28 | 6.5 | N#Cc1ccc(N2CCC(Oc3ccc(F)cc3F)CC2)c(NC(=O)c2ccc(F)cn2)c1 [Example 106, N-(5-cyano-2-(4-(2,4-difluorophenoxy)piperidin-1-yl)phenyl)-5-fluoropicolinamide]
29 | 6.6 | N#Cc1ccc(N2CCC(Oc3ccc(F)cc3F)CC2)c(NC(=O)c2cc3n(n2)CCC3)c1 [Example 107, N-(5-cyano-2-(4-(2,4-difluorophenoxy)piperidin-1-yl)phenyl)-5,6-dihydro-4H-pyrrolo[1,2-b]pyrazole-2-carboxamide]
30 | 7.0 | N#Cc1ccc(N2CCC(Oc3ccc(F)cc3F)CC2)c(NC(=O)c2ncccc2F)c1 [Example 108, N-(5-cyano-2-(4-(2,4-difluorophenoxy)piperidin-1-yl)phenyl)-3-fluoropicolinamide]
31 | 6.7 | COc1ccnc(C(=O)Nc2cc(C#N)ccc2N2CCC(Oc3ccc(F)cc3F)CC2)c1 [Example 109, N-(5-cyano-2-(4-(2,4-difluorophenoxy)piperidin-1-yl)phenyl)-4-methoxypicolinamide]
32 | 6.3 | Cc1nc(C(=O)Nc2cc(C#N)ccc2N2CCC(Oc3ccc(F)cc3F)CC2)c(C)o1 [Example 110, N-(5-cyano-2-(4-(2,4-difluorophenoxy)piperidin-1-yl)phenyl)-2,5-dimethyloxazole-4-carboxamide]
33 | 5.5 | N#Cc1ccc(N2CCC(Oc3ccc(F)cc3F)CC2)c(NC(=O)c2ncoc2C2CC2)c1 [Example 111]
34 | 6.4 | N#Cc1ccc(N2CCC(Oc3ccc(F)cc3F)CC2)c(NC(=O)c2cscn2)c1 [Example 112, N-(5-cyano-2-(4-(2,4-difluorophenoxy)piperidin-1-yl)phenyl)thiazole-4-carboxamide]
35 | 6.9 | Cc1cc(C(=O)Nc2cc(C#N)ccc2N2CCC(Oc3ccc(F)cc3F)CC2)nn1C [Example 113, N-(5-cyano-2-(4-(2,4-difluorophenoxy)piperidin-1-yl)phenyl)-1,5-dimethyl-1H-pyrazole-3-carboxamide]

Reference: patent publication US11426397B2, “Piperidinyl- and piperazinyl-substituted heteroaromatic carboxamides as modulators of GPR6” (TAKEDA PHARMACEUTICAL COMPANY LIMITED, priority 2017, dated 2022)
